Measurements as given in PubChem BioAssay (NCI).
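Cells were grown in 96-well plates and exposed to each compound for 48 hours at five concentrations; endpoints were interpolated linearly between bracketing concentrations, or set to the highest concentration if not reached. Here, GI50 denotes the concentration required for 50% inhibition of growth. TGI: concentration producing complete growth inhibition.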

Assays:
Assay in all cases: growth of human tumour cells (NCI), 48 h
[1] = tested on: 786-0 renal
[2] = tested on: A498 renal
[3] = tested on: A549 NSCLC
[4] = tested on: ACHN renal
[5] = tested on: BT-549 breast
[6] = tested on: CAKI-1 renal
[7] = tested on: CCRF-CEM leukemia
[8] = tested on: COLO 205 colon
[9] = tested on: DU-145 prostate
[10] = tested on: EKVX NSCLC
[11] = tested on: HCC-2998 colon
[12] = tested on: HCT-116 colon
[13] = tested on: HCT-15 colon
[14] = tested on: HL-60(TB) leukemia
[15] = tested on: HOP-62 NSCLC
[16] = tested on: HS 578T breast
[17] = tested on: HT29 colon
[18] = tested on: IGROV1 ovarian
[19] = tested on: K-562 leukemia
[20] = tested on: KM12 colon
[21] = tested on: LOX IMVI melanoma
[22] = tested on: M14 melanoma
[23] = tested on: MALME-3M melanoma
[24] = tested on: MCF7 breast
[25] = tested on: MDA-MB-231 breast
[26] = tested on: MDA-MB-435
[27] = tested on: MOLT-4 leukemia
[28] = tested on: NCI-H226 lung
[29] = tested on: NCI-H23 lung
[30] = tested on: NCI-H460 lung
[31] = tested on: NCI-H522 lung
[32] = tested on: NCI/ADR-RES ovarian
[33] = tested on: OVCAR-3 ovarian
[34] = tested on: OVCAR-4 ovarian
[35] = tested on: OVCAR-5 ovarian
[36] = tested on: OVCAR-8 ovarian
[37] = tested on: PC-3 prostate
[38] = tested on: RXF 393 renal
[39] = tested on: SF-268 CNS
[40] = tested on: SF-295 CNS
[41] = tested on: SF-539 CNS
[42] = tested on: SK-MEL-28 melanoma
[43] = tested on: SK-MEL-5 melanoma
[44] = tested on: SK-OV-3 ovarian
[45] = tested on: SN12C renal
[46] = tested on: SNB-19 CNS
[47] = tested on: SR leukemia
[48] = tested on: SW-620 colon
[49] = tested on: T-47D breast
[50] = tested on: TK-10 renal
[51] = tested on: U251 CNS
[52] = tested on: UACC-257 melanoma
[53] = tested on: UACC-62 melanoma
[54] = tested on: UO-31 renal

`O=C(Oc1cccc(Nc2ncnc3ccccc23)c1)c1ccccc1Cl` showed a GI50 [1] of 20.8 µM, a TGI [1] of 71.9 µM and a GI50 [2] of 23.8 µM. For the same compound, the TGI [2] was 49.4 µM, the GI50 [3] was 25.9 µM and the TGI [3] was over 100 µM. For the same compound, the GI50 [4] was 23.1 µM, the TGI [4] was 62 µM and the GI50 [5] was 24.8 µM. The TGI [5] was 62.3 µM, the GI50 [6] was 9.6 µM and the TGI [6] was 35.8 µM. For the same compound, the GI50 [7] was 19.3 µM, the TGI [7] was 65.1 µM and the GI50 [8] was 24 µM. The TGI [8] was over 100 µM, the GI50 [9] was 22.3 µM and the TGI [9] was over 100 µM. For the same compound, the GI50 [10] was 7.4 µM, the TGI [10] was 91.5 µM and the GI50 [11] was 20.4 µM. It also gave a TGI [11] of 39.3 µM, a GI50 [12] of 14.7 µM and a TGI [12] of 33 µM. It also gave a GI50 [13] of 18.9 µM, a TGI [13] of 46.6 µM and a GI50 [14] of 79.4 µM. The TGI [14] was over 100 µM, the GI50 [15] was 25.6 µM and the TGI [15] was 83.9 µM. The GI50 [16] was 19.1 µM, the TGI [16] was 48.1 µM and the GI50 [17] was 27.4 µM. It also gave a TGI [17] of over 100 µM, a GI50 [18] of 14.9 µM and a TGI [18] of over 100 µM. For the same compound, the GI50 [19] was 43.1 µM, the TGI [19] was over 100 µM and the GI50 [20] was 14.4 µM. The TGI [20] was 31.4 µM, the GI50 [21] was 15.8 µM and the TGI [21] was 36.2 µM. The GI50 [22] was 39.7 µM, the TGI [22] was over 100 µM and the GI50 [23] was 23.9 µM. For the same compound, the TGI [23] was 57.1 µM, the GI50 [24] was 11.7 µM and the TGI [24] was 37.1 µM. The GI50 [25] was 14.3 µM, the TGI [25] was 36 µM and the GI50 [26] was 41.6 µM. It also gave a TGI [26] of over 100 µM, a GI50 [27] of over 100 µM and a TGI [27] of over 100 µM. It also gave a GI50 [28] of 16.3 µM, a TGI [28] of 43.8 µM and a GI50 [29] of 13 µM. The TGI [29] was 31.8 µM, the GI50 [30] was 20.3 µM and the TGI [30] was 52.7 µM. The GI50 [31] was 7.23 µM, the TGI [31] was 26.8 µM and the GI50 [32] was 14.5 µM. For the same compound, the TGI [32] was 40.7 µM, the GI50 [33] was 16.7 µM and the TGI [33] was 56.9 µM. It also gave a GI50 [34] of 48.9 µM, a TGI [34] of over 100 µM and a GI50 [35] of 32.3 µM. For the same compound, the TGI [35] was over 100 µM, the GI50 [36] was 20.2 µM and the TGI [36] was 59.1 µM. The GI50 [37] was 17.8 µM, the TGI [37] was 45.9 µM and the GI50 [38] was 24.8 µM. The TGI [38] was 70.6 µM, the GI50 [39] was 20.8 µM and the TGI [39] was 67 µM. For the same compound, the GI50 [40] was 20 µM, the TGI [40] was 47.5 µM and the GI50 [41] was 30.5 µM. It also gave a TGI [41] of 88.9 µM, a GI50 [42] of 48.7 µM and a TGI [42] of over 100 µM. For the same compound, the GI50 [43] was 14.6 µM, the TGI [43] was 28.2 µM and the GI50 [44] was 66.8 µM. For the same compound, the TGI [44] was over 100 µM, the GI50 [45] was 15.5 µM and the TGI [45] was 49.6 µM. For the same compound, the GI50 [46] was 52.7 µM, the TGI [46] was over 100 µM and the GI50 [47] was 65.7 µM. It also gave a TGI [47] of over 100 µM, a GI50 [48] of 21.8 µM and a TGI [48] of 49.2 µM. The GI50 [49] was 29.2 µM, the TGI [49] was over 100 µM and the GI50 [50] was 8.72 µM. The TGI [50] was 37.8 µM, the GI50 [51] was 25.4 µM and the TGI [51] was 63.5 µM. The GI50 [52] was 26.6 µM, the TGI [52] was 57.1 µM and the GI50 [53] was 22.5 µM. For the same compound, the TGI [53] was 80.6 µM, the GI50 [54] was 36.4 µM and the TGI [54] was over 100 µM.
